Consider one compound from publication PMC10901819, “Structure-function analysis of the cyclic β-1,2-glucan synthase from Agrobacterium tumefaciens” (Nature Communications, 2024).

The target in this assay is T1, Cgs (CgsWT) (Agrobacterium fabrum, UniProt Q7CWD9).
T1 construct: gene chvB; full length, C-terminal 3xFlag from chromosomal insertion; purified from native A. tumefaciens C58 membranes in DDM; nanodiscs (cryo-EM) or proteoliposomes (activity); subpopulation of dimers
Kind of assay: cryo-EM structure. In kind it is binding. The note with it: GT active site; sample incubated with 5 mM UDP-Glc, 1.5 mM MgCl2, pH 7.5, 22 °C; putative UDP density.

Turning to `O=c1ccn([C@@H]2O[C@H](COP(=O)(O)OP(=O)(O)O)[C@@H](O)[C@H]2O)c(=O)[nH]1` [UDP], the cryo-EM structure entry is “The CgsWT model contains an additional density docked at the active site”.
